Source: ChEMBL document CHEMBL5465560, “Selectivity Literature for EUbOPEN Chemogenomic Library” (2024)

What was measured:
Details in all cases: at 1 µM
[1] = target: Serine/threonine-protein kinase 38-like (Homo sapiens) (UniProt Q9Y2H1); assay: Selectivity interaction (KinomeScan (DiscoverX)) EUB0001049a STK38L
[2] = target: T1, Serine/threonine-protein kinase BRSK2 (Homo sapiens) (UniProt Q8IWQ3); assay: Selectivity interaction (Ambit KINOMEscan and KiNATiv profiling in Jurkat cells) EUB0000090b BRSK2; type: cell-based
T1 sequence (whole entry): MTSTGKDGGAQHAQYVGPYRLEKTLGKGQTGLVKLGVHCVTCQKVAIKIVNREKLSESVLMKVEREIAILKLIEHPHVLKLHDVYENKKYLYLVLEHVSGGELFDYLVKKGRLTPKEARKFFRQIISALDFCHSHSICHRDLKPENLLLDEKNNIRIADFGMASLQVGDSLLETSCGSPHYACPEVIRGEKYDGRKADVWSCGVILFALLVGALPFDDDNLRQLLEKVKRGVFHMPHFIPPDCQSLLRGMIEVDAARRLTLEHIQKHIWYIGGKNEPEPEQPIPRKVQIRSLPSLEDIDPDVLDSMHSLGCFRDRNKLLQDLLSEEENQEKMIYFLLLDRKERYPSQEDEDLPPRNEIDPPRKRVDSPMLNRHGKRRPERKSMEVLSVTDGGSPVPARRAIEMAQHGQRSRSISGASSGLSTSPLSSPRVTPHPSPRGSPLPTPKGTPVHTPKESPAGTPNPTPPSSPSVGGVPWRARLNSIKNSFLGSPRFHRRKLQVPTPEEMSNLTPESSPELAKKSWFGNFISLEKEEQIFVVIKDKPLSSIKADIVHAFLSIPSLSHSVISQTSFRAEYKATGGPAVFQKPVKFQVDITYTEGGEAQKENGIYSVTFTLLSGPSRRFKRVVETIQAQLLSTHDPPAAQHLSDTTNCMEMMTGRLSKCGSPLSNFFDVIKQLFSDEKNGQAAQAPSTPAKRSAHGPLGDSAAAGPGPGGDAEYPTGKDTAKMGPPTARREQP

[3] = target: T2, Mitogen-activated protein kinase 15 (Homo sapiens) (UniProt Q8TD08); assay: Selectivity interaction (Ambit KINOMEscan and KiNATiv profiling in Jurkat cells) EUB0000090b MAPK15; type: cell-based
T2 sequence (whole entry): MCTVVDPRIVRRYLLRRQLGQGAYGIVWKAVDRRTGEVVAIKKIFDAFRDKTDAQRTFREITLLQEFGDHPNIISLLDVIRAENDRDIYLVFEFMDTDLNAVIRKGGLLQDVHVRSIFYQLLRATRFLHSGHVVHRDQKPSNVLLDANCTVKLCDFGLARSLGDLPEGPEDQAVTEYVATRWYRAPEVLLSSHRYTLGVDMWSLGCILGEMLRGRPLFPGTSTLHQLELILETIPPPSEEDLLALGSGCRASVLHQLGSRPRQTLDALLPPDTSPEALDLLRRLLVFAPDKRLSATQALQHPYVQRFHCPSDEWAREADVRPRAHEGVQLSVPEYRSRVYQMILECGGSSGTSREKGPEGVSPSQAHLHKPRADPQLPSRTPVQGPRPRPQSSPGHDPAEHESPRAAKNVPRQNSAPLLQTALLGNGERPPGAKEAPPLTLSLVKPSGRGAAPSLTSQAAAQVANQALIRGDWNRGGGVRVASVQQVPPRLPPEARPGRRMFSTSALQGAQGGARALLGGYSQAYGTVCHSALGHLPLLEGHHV

[4] = target: Receptor-type tyrosine-protein kinase FLT3 (Homo sapiens) (UniProt P36888); assay: (§1) Selectivity interaction (Ambit KINOMEscan and KiNATiv profiling in Jurkat cells) EUB0000090b FLT3; type: cell-based
[5] = system: T3, Receptor-type tyrosine-protein kinase FLT3 (Homo sapiens), P36888 [D835H]; assay: as §1; type: cell-based
T3 sequence (whole entry): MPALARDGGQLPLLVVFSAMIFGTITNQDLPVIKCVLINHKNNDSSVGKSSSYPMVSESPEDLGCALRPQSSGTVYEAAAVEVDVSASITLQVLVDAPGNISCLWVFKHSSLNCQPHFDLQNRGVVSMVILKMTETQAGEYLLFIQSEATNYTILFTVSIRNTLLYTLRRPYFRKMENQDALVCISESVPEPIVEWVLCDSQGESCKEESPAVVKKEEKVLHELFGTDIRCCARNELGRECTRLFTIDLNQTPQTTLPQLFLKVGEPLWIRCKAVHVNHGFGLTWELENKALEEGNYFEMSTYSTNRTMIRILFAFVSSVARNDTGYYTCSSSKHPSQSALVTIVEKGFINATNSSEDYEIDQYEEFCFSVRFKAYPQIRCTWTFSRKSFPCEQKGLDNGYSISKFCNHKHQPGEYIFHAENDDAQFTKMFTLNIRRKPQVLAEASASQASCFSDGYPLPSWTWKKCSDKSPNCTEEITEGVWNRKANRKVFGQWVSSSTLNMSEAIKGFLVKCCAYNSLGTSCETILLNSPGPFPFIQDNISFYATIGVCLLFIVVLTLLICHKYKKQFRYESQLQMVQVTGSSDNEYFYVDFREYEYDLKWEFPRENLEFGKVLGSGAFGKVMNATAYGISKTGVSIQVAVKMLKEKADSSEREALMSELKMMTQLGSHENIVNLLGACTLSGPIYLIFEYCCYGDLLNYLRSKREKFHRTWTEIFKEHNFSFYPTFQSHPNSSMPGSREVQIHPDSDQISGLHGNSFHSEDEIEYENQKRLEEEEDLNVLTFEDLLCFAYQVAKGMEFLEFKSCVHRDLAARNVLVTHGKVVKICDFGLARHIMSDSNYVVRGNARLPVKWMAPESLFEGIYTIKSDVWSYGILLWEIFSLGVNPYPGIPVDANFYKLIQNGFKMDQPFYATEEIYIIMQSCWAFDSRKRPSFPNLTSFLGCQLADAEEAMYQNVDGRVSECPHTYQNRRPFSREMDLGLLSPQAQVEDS

Sequence of Serine/threonine-protein kinase 38-like (Homo sapiens) (Q9Y2H1 2-464 limits assumed): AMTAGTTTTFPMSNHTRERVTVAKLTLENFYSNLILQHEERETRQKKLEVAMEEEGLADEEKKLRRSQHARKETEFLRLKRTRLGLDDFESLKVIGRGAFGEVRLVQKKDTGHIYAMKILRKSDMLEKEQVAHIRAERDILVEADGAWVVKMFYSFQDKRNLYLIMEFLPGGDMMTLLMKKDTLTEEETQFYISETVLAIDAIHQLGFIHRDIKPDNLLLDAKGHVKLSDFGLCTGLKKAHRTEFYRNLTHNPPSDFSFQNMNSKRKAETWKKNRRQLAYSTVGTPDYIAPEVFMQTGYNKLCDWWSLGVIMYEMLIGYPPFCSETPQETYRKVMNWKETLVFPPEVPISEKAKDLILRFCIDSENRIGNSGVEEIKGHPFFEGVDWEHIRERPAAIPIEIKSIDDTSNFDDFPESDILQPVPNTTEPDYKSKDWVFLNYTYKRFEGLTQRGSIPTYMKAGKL

SMILES	% of control [1]	% of control [2]	% of control [3]	% of control [4]	% of control [5]
COc1cc(Nc2nc(C)cc(-c3cnn4nc(OC)ccc34)n2)cc(C(F)(F)F)c1	100%				
CN(C)C/C=C/C(=O)Nc1ccc(C(=O)N2CCCC(Nc3ncc(Cl)c(-c4c[nH]c5ccccc45)n3)C2)cc1 (stereo not given)		100%	14%	94%	64%
